# Laboratory results reported in PubChem BioAssay (NCI).
#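 1) Cells in 96-well plates. 2) Compound, 48 h, 5 concentrations. 3) Linear interpolation between surrounding doses. 4) Unreached endpoint = highest concentration. The concentration for 50% growth inhibition is given as GI50. TGI marks complete inhibition of growth.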
# Key:
# Assay in all cases: NCI tumour cell line growth inhibition, 48 h
# 786-0 renal = tested on: 786-0 renal
# A498 renal = tested on: A498 renal
# A549 NSCLC = tested on: A549 NSCLC
# ACHN renal = tested on: ACHN renal
# BT-549 breast = tested on: BT-549 breast
# CAKI-1 renal = tested on: CAKI-1 renal
# CCRF-CEM leukemia = tested on: CCRF-CEM leukemia
# COLO 205 colon = tested on: COLO 205 colon
# DU-145 prostate = tested on: DU-145 prostate
# EKVX NSCLC = tested on: EKVX NSCLC
# HCC-2998 colon = tested on: HCC-2998 colon
# HCT-116 colon = tested on: HCT-116 colon
# HCT-15 colon = tested on: HCT-15 colon
# HL-60(TB) leukemia = tested on: HL-60(TB) leukemia
# HOP-62 NSCLC = tested on: HOP-62 NSCLC
# HOP-92 NSCLC = tested on: HOP-92 NSCLC
# HS 578T breast = tested on: HS 578T breast
# HT29 colon = tested on: HT29 colon
# IGROV1 ovarian = tested on: IGROV1 ovarian
# K-562 leukemia = tested on: K-562 leukemia
# KM12 colon = tested on: KM12 colon
# LOX IMVI melanoma = tested on: LOX IMVI melanoma
# M14 melanoma = tested on: M14 melanoma
# MALME-3M melanoma = tested on: MALME-3M melanoma
# MCF7 breast = tested on: MCF7 breast
# MDA-MB-231 breast = tested on: MDA-MB-231 breast
# MDA-MB-435 = tested on: MDA-MB-435
# MDA-MB-468 breast = tested on: MDA-MB-468 breast
# MOLT-4 leukemia = tested on: MOLT-4 leukemia
# NCI-H226 lung = tested on: NCI-H226 lung
# NCI-H23 lung = tested on: NCI-H23 lung
# NCI-H460 lung = tested on: NCI-H460 lung
# NCI-H522 lung = tested on: NCI-H522 lung
# NCI/ADR-RES ovarian = tested on: NCI/ADR-RES ovarian
# OVCAR-3 ovarian = tested on: OVCAR-3 ovarian
# OVCAR-4 ovarian = tested on: OVCAR-4 ovarian
# OVCAR-5 ovarian = tested on: OVCAR-5 ovarian
# OVCAR-8 ovarian = tested on: OVCAR-8 ovarian
# PC-3 prostate = tested on: PC-3 prostate
# RPMI-8226 leukemia = tested on: RPMI-8226 leukemia
# RXF 393 renal = tested on: RXF 393 renal
# SF-268 CNS = tested on: SF-268 CNS
# SF-295 CNS = tested on: SF-295 CNS
# SF-539 CNS = tested on: SF-539 CNS
# SK-MEL-2 melanoma = tested on: SK-MEL-2 melanoma
# SK-MEL-28 melanoma = tested on: SK-MEL-28 melanoma
# SK-MEL-5 melanoma = tested on: SK-MEL-5 melanoma
# SK-OV-3 ovarian = tested on: SK-OV-3 ovarian
# SN12C renal = tested on: SN12C renal
# SNB-19 CNS = tested on: SNB-19 CNS
# SNB-75 CNS = tested on: SNB-75 CNS
# SR leukemia = tested on: SR leukemia
# SW-620 colon = tested on: SW-620 colon
# T-47D breast = tested on: T-47D breast
# TK-10 renal = tested on: TK-10 renal
# U251 CNS = tested on: U251 CNS
# UACC-257 melanoma = tested on: UACC-257 melanoma
# UACC-62 melanoma = tested on: UACC-62 melanoma
# UO-31 renal = tested on: UO-31 renal
smiles,measurement,setting,value
C/C(=C\CC/C=C(\C)CC/C=C(\C)CC[C@@H](O)C(C)(C)O)CC/C=C(\C)CC[C@@H](O)C(C)(C)O,GI50,786-0 renal,10.8 µM
same,TGI,786-0 renal,24.1 µM
same,GI50,A498 renal,12.6 µM
same,TGI,A498 renal,25.7 µM
same,GI50,A549 NSCLC,10 µM
same,TGI,A549 NSCLC,30.2 µM
same,GI50,ACHN renal,5.78 µM
same,TGI,ACHN renal,18.3 µM
same,GI50,BT-549 breast,5.14 µM
same,TGI,BT-549 breast,17.4 µM
same,GI50,CAKI-1 renal,12.3 µM
same,TGI,CAKI-1 renal,25.1 µM
same,GI50,CCRF-CEM leukemia,17.9 µM
same,TGI,CCRF-CEM leukemia,39.7 µM
same,GI50,COLO 205 colon,17.8 µM
same,TGI,COLO 205 colon,34.6 µM
same,GI50,DU-145 prostate,15.5 µM
same,TGI,DU-145 prostate,29 µM
same,GI50,EKVX NSCLC,7.68 µM
same,TGI,EKVX NSCLC,20.5 µM
same,GI50,HCC-2998 colon,13.5 µM
same,TGI,HCC-2998 colon,26.4 µM
same,GI50,HCT-116 colon,6.39 µM
same,TGI,HCT-116 colon,21.3 µM
same,GI50,HCT-15 colon,10.9 µM
same,TGI,HCT-15 colon,22.8 µM
same,GI50,HL-60(TB) leukemia,3.1 µM
same,TGI,HL-60(TB) leukemia,11.2 µM
same,GI50,HOP-62 NSCLC,17 µM
same,TGI,HOP-62 NSCLC,34.6 µM
same,GI50,HOP-92 NSCLC,10.2 µM
same,TGI,HOP-92 NSCLC,23.9 µM
same,GI50,HS 578T breast,10.3 µM
same,TGI,HS 578T breast,26.1 µM
same,GI50,HT29 colon,12 µM
same,TGI,HT29 colon,27.4 µM
same,GI50,IGROV1 ovarian,15.4 µM
same,TGI,IGROV1 ovarian,29.2 µM
same,GI50,K-562 leukemia,5.07 µM
same,TGI,K-562 leukemia,> 100 µM
same,GI50,KM12 colon,13.9 µM
same,TGI,KM12 colon,27.3 µM
same,GI50,LOX IMVI melanoma,13.4 µM
same,TGI,LOX IMVI melanoma,26.4 µM
same,GI50,M14 melanoma,10.4 µM
same,TGI,M14 melanoma,23.1 µM
same,GI50,MALME-3M melanoma,12 µM
same,TGI,MALME-3M melanoma,24.5 µM
same,GI50,MCF7 breast,6.7 µM
same,TGI,MCF7 breast,20 µM
same,GI50,MDA-MB-231 breast,13.6 µM
same,TGI,MDA-MB-231 breast,26.5 µM
same,GI50,MDA-MB-435,14.7 µM
same,TGI,MDA-MB-435,28 µM
same,GI50,MDA-MB-468 breast,7.97 µM
same,TGI,MDA-MB-468 breast,21.1 µM
same,GI50,MOLT-4 leukemia,14.4 µM
same,TGI,MOLT-4 leukemia,44.6 µM
same,GI50,NCI-H226 lung,12.6 µM
same,TGI,NCI-H226 lung,27.3 µM
same,GI50,NCI-H23 lung,10.9 µM
same,TGI,NCI-H23 lung,23.2 µM
same,GI50,NCI-H460 lung,11.3 µM
same,TGI,NCI-H460 lung,24.5 µM
same,GI50,NCI-H522 lung,11 µM
same,TGI,NCI-H522 lung,25.9 µM
same,GI50,NCI/ADR-RES ovarian,11.1 µM
same,TGI,NCI/ADR-RES ovarian,23.6 µM
same,GI50,OVCAR-3 ovarian,13.7 µM
same,TGI,OVCAR-3 ovarian,26.7 µM
same,GI50,OVCAR-4 ovarian,11 µM
same,TGI,OVCAR-4 ovarian,23.4 µM
same,GI50,OVCAR-5 ovarian,14.5 µM
same,TGI,OVCAR-5 ovarian,27.8 µM
same,GI50,OVCAR-8 ovarian,15 µM
same,TGI,OVCAR-8 ovarian,34.8 µM
same,GI50,PC-3 prostate,5.16 µM
same,TGI,PC-3 prostate,20.1 µM
same,GI50,RPMI-8226 leukemia,3.74 µM
same,TGI,RPMI-8226 leukemia,18.9 µM
same,GI50,RXF 393 renal,5.93 µM
same,TGI,RXF 393 renal,20.1 µM
same,GI50,SF-268 CNS,13.6 µM
same,TGI,SF-268 CNS,28.3 µM
same,GI50,SF-295 CNS,7.84 µM
same,TGI,SF-295 CNS,20.9 µM
same,GI50,SF-539 CNS,13.1 µM
same,TGI,SF-539 CNS,26.1 µM
same,GI50,SK-MEL-2 melanoma,14.4 µM
same,TGI,SK-MEL-2 melanoma,30 µM
same,GI50,SK-MEL-28 melanoma,12.6 µM
same,TGI,SK-MEL-28 melanoma,25.4 µM
same,GI50,SK-MEL-5 melanoma,5.06 µM
same,TGI,SK-MEL-5 melanoma,17.4 µM
same,GI50,SK-OV-3 ovarian,15.8 µM
same,TGI,SK-OV-3 ovarian,31 µM
same,GI50,SN12C renal,12.6 µM
same,TGI,SN12C renal,25.3 µM
same,GI50,SNB-19 CNS,15 µM
same,TGI,SNB-19 CNS,28.5 µM
same,GI50,SNB-75 CNS,12.5 µM
same,TGI,SNB-75 CNS,25 µM
same,GI50,SR leukemia,18.5 µM
same,TGI,SR leukemia,67.8 µM
same,GI50,SW-620 colon,14.9 µM
same,TGI,SW-620 colon,29.4 µM
same,GI50,T-47D breast,7.75 µM
same,TGI,T-47D breast,25 µM
same,GI50,TK-10 renal,17.6 µM
same,TGI,TK-10 renal,32.5 µM
same,GI50,U251 CNS,13.4 µM
same,TGI,U251 CNS,38.1 µM
same,GI50,UACC-257 melanoma,10.7 µM
same,TGI,UACC-257 melanoma,23.7 µM
same,GI50,UACC-62 melanoma,9.71 µM
same,TGI,UACC-62 melanoma,21.6 µM
same,GI50,UO-31 renal,7.71 µM
same,TGI,UO-31 renal,20.7 µM
